Laboratory results: US20100022514A1, “Heterocycle Compounds and Methods of Use Thereof” (NORVARTIS AG, priority 2006, published 2010)
pIC50: −log10 of the molar value. Read-outs that look alike come from different tables or passages of the source.

How the values were obtained:
HDAC-1 = target: T1, HDAC-1 (Homo sapiens, UniProt Q13547); experiment: Deacetylase fluorescence assay (HDAC-1); assay type: biochemical
T1 construct: made in house
Protocol: Conventional methods are used to express deacetylase enzymes and purify them from lysed cells. The following example describes an exemplary procedure, however equivalent procedures are within the scope of the invention.
The cell line used is a derivative of 293 cells overexpressing a fusion of the gene encoding each deacetylase protein with a nucleotide sequence encoding the Flag marker.
Cells are grown in Optimem, 2% Fetal Calf Serum, Pen/Strep. For enzyme preparation, Lysis buffer (IPLS) is 50 mM Tris-HCl, pH 7.5, 120 mM NaCl, 0.5 mM EDTA and 0.5% Nonidet P-40, to which is added one tablet of Protease inhibitors (Roche 11836170001) per 10 ml buffer. Other buffers are IPHS, which is IPLS containing 1 M NaCl; TBS (Sigma #T5912) dilute 10× stock to 1× with dH2O; HD buffer: 10 mM Tris pH 8.0 (1M Stock) 10 mM NaCl (5M Stock), 10% glycerol, and for dialysis: 400 μM PMSF is added (for 2 L: use 8 ml 100 mM Stock). Protease inhibitors (Complete mini, Boehringer Mannheim), 1 tablet/10 mL are added to all buffers but not used in buffers for enzyme assays.
Cells are harvested without using trypsin, and most cells are obtained easily in PBS, with gentle striking or agitation of flasks if necessary. More adherent cells are scraped in PBS. Cells are grown in 500 cm^2 trays, from which about half of the media is aspirated (50 ml total), then cells are scraped in the rest of the media and transferred to a centrifuge tube. Trays are washed with 25 ml cold PBS, scraped again to collect additional cells, and centrifuged at 1500 rpm at 4° C. for 5 min. Cells are washed at least 3 times in PBS to remove growth media, pelleting cells after each wash by centrifugation at 1500 rpm for 5 minutes. After washing, PBS is removed and the resulting cell pellet frozen at −80° C. for storage prior to purification.
For purification, cells are resuspended in lysis buffer, 12 ml of IPLS for cells collected from 10 500 cm trays. Cells are lysed at 4° C. for 3 hrs with rocking, and debris is removed by centrifugation for 20 min at 17,000 rpm in 30 ml centrifuge tubes. If supernatant is not clear afterward, centrifugation of the supernatant is repeated. Protein concentration of the whole cell lysate is determined (generally in the range of about 2-5 mg/ml).
For immunoprecipitation per mg of protein, 15 μL of anti-Flag M2-Agarose Affinity beads (Sigma #A2220) is used. Beads are prepared by washing 3 times with 10× bead volume of PBS and 1 time with IPLS, with centrifugation of the washes at 1500 rpm for 5 min. Whole cell lysate is incubated with the Ab-beads overnight at 4° C. Then beads are centrifuged and washed in 5× volume of the following buffers: three times in IPLS (30 sec at 4° C., spin at 1500 RPM for 5 min); three times in IPHS; and three times in TBS buffer. After each centrifugation, the supernatant is aspirated, leaving the pellet as dry as possible but avoiding sucking up any of the beads.
To elute the enzyme, beads are resuspended in 5× bead volume of TBS with protease inhibitor (Roche 11836170001) 1 tablet/10 mL. Enzyme is eluted with 400 μg/mL Flag peptide (Sigma #F-3290) for 3 hrs at 4° C. on rotator. Then beads are centrifuged, and the supernatant is transferred to a new tube to which is added 1/10 volume of glycerol. The supernatant is transferred to a dialysis cassette (Pierce #66410) using a 3 cc syringe and 18 G needle, and is dialyze sup in 2 L HD buffer for 2 hrs at 4° C. (1 L/hour). The resulting purified deacetylase is divided into aliquots (300 μL/tube), is snap frozen in dry ice bath, and is stored at −80° C.
For assay of deacetylase an assay based on Deacetylase Fluorescent Activity Assay/Drug Discovery Kit (BioMol # AK500) is used, however any equivalent deacetylase assay is within the scope of the invention.
The Fluorescent Assay Buffer (FAB) contains: 25 mM Tris-HCl, pH 8.0, 137 mM NaCl, 2.7 mM KCl and 1 mM MgCl2. […]

[1] = system: p21 promoter (p21-luc) in H1299 cells; experiment: p21 promoter luciferase assay using stably transfected p21-luc in H1299 cells; assay type: cell-based; settings: Homo sapiens, NCI-H1299
Protocol: The cell lines used are derived from H1299 (p21-luc). The growth media used is RPMI 1640, 10% FBS, 1% Pen/Strep and the selection media added is 500 μg/mL Geneticin (Gibco). The buffer used is 5× cell culture lysis buffer (Promega #E1531), stored at −20 C and the Luciferase assay reagent (Promega #E1483) is stored at −70° C. The results of the assay are analyzed using Wallac Software.
To assay Luciferase, the cell culture medium is removed after one day of growth and the flasks are washed once with PBS. The cells are trypsinized in 20 mL of media and the trypsin is neutralized. The cells are counted (0.5-1 mL) on a Vi-Cell XR cell viability analyzer.
Cells are then diluted to a concentration of approximately 5000 cells/200 μL, and 190 μL samples are aliquoted into each well of a Costar white 96-well TC treated white bottom plate with lid (Costar #3917). Plates are then incubated overnight at 37 C.
After a further day, a sample of the compound is added to the wells for assay.
After a further day, the cells are lysed and the luciferase activity of the lysed cells is measured. Each well is washed twice with PBS and 20 μL/well of 1× cell culture lysis buffer (dilute 5× to 1× in distilled water) is added to each well. The microtiter plates are then shaken on a microtiter plate shaker for 20 minutes at room temperate at a speed setting of 5-6. After removal from the shaker, 100 μL of Luciferase Reagent is added to each well. Each microtiter plate is then read on Wallac Envision instrument.

T1 sequence (Q13547 whole entry): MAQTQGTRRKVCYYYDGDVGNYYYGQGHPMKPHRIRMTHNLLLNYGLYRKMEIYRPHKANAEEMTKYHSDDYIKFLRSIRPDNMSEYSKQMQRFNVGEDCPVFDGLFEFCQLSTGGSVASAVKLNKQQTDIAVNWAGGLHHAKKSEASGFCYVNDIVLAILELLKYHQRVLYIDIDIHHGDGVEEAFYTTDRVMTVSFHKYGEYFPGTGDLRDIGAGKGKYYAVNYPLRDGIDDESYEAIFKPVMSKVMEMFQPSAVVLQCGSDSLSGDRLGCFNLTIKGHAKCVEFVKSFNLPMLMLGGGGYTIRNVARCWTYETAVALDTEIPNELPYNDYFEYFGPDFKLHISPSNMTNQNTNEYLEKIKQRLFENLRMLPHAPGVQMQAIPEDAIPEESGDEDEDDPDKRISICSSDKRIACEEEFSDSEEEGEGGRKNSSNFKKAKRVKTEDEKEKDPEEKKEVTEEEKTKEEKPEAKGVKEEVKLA

SMILES	pIC50 (HDAC-1; read-out: HDAC-1 IC50)	pIC50 (HDAC-1)	AC50 [1] [nM]
Cc1[nH]c2ccccc2c1CCN1Cc2ccc(/C=C/C(=O)NO)cc2C1 [Example 29, (E)-N-Hydroxy-3-{2-[2-(2-methyl-1H-indol-3-yl)-ethyl]-2,3-dihydro-1H-isoindol-5-yl}-acrylamide]		> 7.00	100 to 1000
Cc1noc(-c2ccccc2)c1CCN1CCc2ccc(/C=C/C(=O)NO)cc2C1 [Example 38, (E)-N-Hydroxy-3-{2-[2-(3-methyl-5-phenyl-isoxazol-4-yl)-ethyl]-1,2,3,4-tetrahydro-isoquinolin-7-yl}-acrylamide]	> 7.00		> 1000
O=C(/C=C/c1ccc2c(c1)CN(C(=O)c1cccnc1)C2)NO [Example 17, (E)-N-Hydroxy-3-[2-(pyridine-3-carbonyl)-2,3-dihydro-1H-isoindol-5-yl]-acrylamide]	6.00 to 7.00		> 1000
Cc1nn2ccccc2c1CCN1CCCc2cc(/C=C/C(=O)NO)ccc2C1 [Example 33, (E)-N-Hydroxy-3-{2-[2-(2-methyl-pyrazolo[1,5-a]pyridin-3-yl)-ethyl]-2,3,4,5-tetrahydro-1H-benzo[c]azepin-7-yl}-acrylamide]	> 7.00		> 1000
Cc1[nH]c2ccccc2c1CCN1CCc2cc(/C=C/C(=O)NO)ccc2C1 [Example 70, (E)-N-Hydroxy-3-{2-[2-(2-methyl-1H-indol-3-yl)-ethyl]-1,2,3,4-tetrahydro-isoquinolin-6-yl}-acrylamide]		> 7.00	100 to 1000
O=C(/C=C/c1ccc2c(c1)CN(CCc1ccnn1-c1ccccc1)CC2)NO [Example 48, (E)-N-Hydroxy-3-{2-[2-(2-phenyl-2H-pyrazol-3-yl)-ethyl]-1,2,3,4-tetrahydro-isoquinolin-7-yl}-acrylamide]	6.00 to 7.00		> 1000
Cc1cccc(S(=O)(=O)N2Cc3ccc(/C=C/C(=O)NO)cc3C2)c1 [Example 11, (E)-N-Hydroxy-3-[2-(toluene-3-sulfonyl)-2,3-dihydro-1H-isoindol-5-yl]-acrylamide]	> 7.00		> 1000
COc1ccc(S(=O)(=O)N2Cc3ccc(/C=C/C(=O)NO)cc3C2)cc1 [Example 9, (E)-N-Hydroxy-3-[2-(4-methoxy-benzenesulfonyl)-2,3-dihydro-1H-isoindol-5-yl]-acrylamide]	> 7.00		> 1000
O=C(/C=C/c1ccc2c(c1)CN(C(=O)C1CCCC1)C2)NO [Example 22, (E)-3-(2-Cyclopentanecarbonyl-2,3-dihydro-1H-isoindol-5-yl)-N-hydroxy-acrylamide]	6.00 to 7.00		> 1000
O=C(/C=C/c1ccc2c(c1)CN(C(=O)Cc1ccccc1)C2)NO [Example 26, (E)-N-Hydroxy-3-(2-phenylacetyl-2,3-dihydro-1H-isoindol-5-yl)-acrylamide]	6.00 to 7.00		> 1000
O=C(/C=C/c1ccc2c(c1)CN(S(=O)(=O)c1cccnc1)C2)NO [Example 7, (E)-N-Hydroxy-3-[2-(pyridine-3-sulfonyl)-2,3-dihydro-1H-isoindol-5-yl]-acrylamide]	6.00 to 7.00		> 1000
CC(C)(C)c1[nH]c2ccccc2c1CCN1CCc2ccc(/C=C/C(=O)NO)cc2C1 [Example 42, (E)-3-{2-[2-(2-tert-Butyl-1H-indol-3-yl)-ethyl]-1,2,3,4-tetrahydro-isoquinolin-7-yl}-N-hydroxy-acrylamide]	> 7.00		100 to 1000

Further lines, with some results ahead:

pIC50 (HDAC-1; read-out: HDAC-1 IC50)	SMILES	pIC50 (HDAC-1)	AC50 [1] [nM]
6.00 to 7.00	CN(C)c1ccc(C(=O)N2CCc3cc(/C=C/C(=O)NO)ccc3C2)cc1 [Example 86, (E)-3-[2-(4-Dimethylamino-benzoyl)-1,2,3,4-tetrahydro-isoquinolin-6-yl]-N-hydroxy-acrylamide]		> 1000
6.00 to 7.00	COc1ccc(S(=O)(=O)N2CCc3ccc(/C=C/C(=O)NO)cc3C2)cc1 [Example 56, (E)-N-Hydroxy-3-[2-(4-methoxy-benzenesulfonyl)-1,2,3,4-tetrahydro-isoquinolin-7-yl]-acrylamide]		> 1000
6.00 to 7.00	Cc1c(CCN2CCc3ccc(/C=C/C(=O)NO)cc3C2)cnn1-c1ccccc1 [Example 49, (E)-N-Hydroxy-3-{2-[2-(5-methyl-1-phenyl-1H-pyrazol-4-yl)-ethyl]-1,2,3,4-tetrahydro-isoquinolin-7-yl}-acrylamide]		> 1000
> 7.00	Cc1[nH]c2ccccc2c1CC(=O)N1CCc2cc(/C=C/C(=O)NO)ccc2C1 [Example 79, (E)-N-Hydroxy-3-{2-[2-(2-methyl-1H-indol-3-yl)-acetyl]-1,2,3,4-tetrahydro-isoquinolin-6-yl}-acrylamide]		> 1000
> 7.00	Cc1[nH]c2ccccc2c1CC(=O)N1CCc2ccc(CCC(=O)NO)cc2C1 [Example 62, N-Hydroxy-3-{2-[2-(2-methyl-1H-indol-3-yl)-acetyl]-1,2,3,4-tetrahydro-isoquinolin-7-yl}-propionamide]		> 1000
> 7.00	O=C(/C=C/c1ccc2c(c1)CCN(CCc1ccccc1)C2)NO [Example 75, (E)-N-Hydroxy-3-(2-phenethyl-1,2,3,4-tetrahydro-isoquinolin-6-yl)-acrylamide]		> 1000
> 7.00	COc1ccc(C(=O)N2CCc3ccc(/C=C/C(=O)NO)cc3C2)cc1 [Example 57, (E)-N-Hydroxy-3-[2-(4-methoxy-benzoyl)-1,2,3,4-tetrahydro-isoquinolin-7-yl]-acrylamide]		> 1000
6.00 to 7.00	O=C(/C=C/c1ccc2c(c1)CCN(Cc1ccccc1)C2)NO [Example 77, (E)-3-(2-Benzyl-1,2,3,4-tetrahydro-isoquinolin-6-yl)-N-hydroxy-acrylamide]		> 1000
> 7.00	O=C(/C=C/c1ccc2c(c1)CN(C(=O)Cc1ccccc1)CC2)NO [Example 63, (E)-N-Hydroxy-3-(2-phenylacetyl-1,2,3,4-tetrahydro-isoquinolin-7-yl)-acrylamide]		> 1000
6.00 to 7.00	O=C(/C=C/c1ccc2c(c1)CN(S(=O)(=O)c1ccccc1)CC2)NO [Example 54, (E)-3-(2-Benzenesulfonyl-1,2,3,4-tetrahydro-isoquinolin-7-yl)-N-hydroxy-acrylamide]		> 1000
> 7.00	COc1ccc(CC(=O)N2CCc3ccc(/C=C/C(=O)NO)cc3C2)cc1 [Example 65, (E)-N-Hydroxy-3-{2-[2-(4-methoxy-phenyl)-acetyl]-1,2,3,4-tetrahydro-isoquinolin-7-yl}-acrylamide]		> 1000
